We go through three compounds from PMC2655144 (Biochemistry, 2008).

For one experiment, the system named is AChE. Conditions: cited from earlier work; for i2 for thioflavin T with A-site ligand: ternary complex with thioflavin T.
For experiment [1], the target named is free AChE (E), recombinant human AChE (Homo sapiens, UniProt P22303). The following applies: cited from earlier work.
The next experiment deals with carbamoylated AChE (EC) (Homo sapiens, UniProt P22303). The experiment is described as follows: Carbachol binding to carbamoylated AChE.
Sequence of carbamoylated AChE (EC) (P22303 32-574 limits assumed): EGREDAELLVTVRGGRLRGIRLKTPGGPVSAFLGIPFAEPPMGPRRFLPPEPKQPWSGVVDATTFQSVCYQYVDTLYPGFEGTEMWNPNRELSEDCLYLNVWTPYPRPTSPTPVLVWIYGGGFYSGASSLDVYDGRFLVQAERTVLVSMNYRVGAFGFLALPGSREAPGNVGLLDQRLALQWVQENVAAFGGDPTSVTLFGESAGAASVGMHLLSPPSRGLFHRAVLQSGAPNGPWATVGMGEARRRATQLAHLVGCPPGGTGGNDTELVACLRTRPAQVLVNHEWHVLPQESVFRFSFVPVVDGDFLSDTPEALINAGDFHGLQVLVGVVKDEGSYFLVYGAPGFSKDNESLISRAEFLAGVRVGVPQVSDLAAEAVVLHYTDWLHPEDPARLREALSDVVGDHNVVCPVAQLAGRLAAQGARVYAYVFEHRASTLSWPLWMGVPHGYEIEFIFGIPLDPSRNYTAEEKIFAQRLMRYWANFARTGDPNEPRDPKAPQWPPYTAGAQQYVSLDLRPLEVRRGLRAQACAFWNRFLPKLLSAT
The next experiment has as its target recombinant human AChE (Homo sapiens, UniProt P22303). It counts as biochemical. The following applies: for k12 + k21: 15.6 μM thioflavin T; for k122: two-component fit, minor component E2.
Setting [2] is: maximum parameter range fit, i fixed at 1e-6.
[3] abbreviates: maximum parameter range fit, iKs fixed at 12 mM.
[4] abbreviates: maximum parameter range fit, iEC fixed at 1e-6.
Setting [5] is: maximum parameter range fit, iECKECS fixed at 8 mM.

Values joined by “and” are separate entries in the source; they are usually repeats but may differ in a detail not shown here. Equal entries are not always repeated. Where two headings read alike, the source gives them in different places.

Sequence of free AChE (E), recombinant human AChE (P22303 32-614): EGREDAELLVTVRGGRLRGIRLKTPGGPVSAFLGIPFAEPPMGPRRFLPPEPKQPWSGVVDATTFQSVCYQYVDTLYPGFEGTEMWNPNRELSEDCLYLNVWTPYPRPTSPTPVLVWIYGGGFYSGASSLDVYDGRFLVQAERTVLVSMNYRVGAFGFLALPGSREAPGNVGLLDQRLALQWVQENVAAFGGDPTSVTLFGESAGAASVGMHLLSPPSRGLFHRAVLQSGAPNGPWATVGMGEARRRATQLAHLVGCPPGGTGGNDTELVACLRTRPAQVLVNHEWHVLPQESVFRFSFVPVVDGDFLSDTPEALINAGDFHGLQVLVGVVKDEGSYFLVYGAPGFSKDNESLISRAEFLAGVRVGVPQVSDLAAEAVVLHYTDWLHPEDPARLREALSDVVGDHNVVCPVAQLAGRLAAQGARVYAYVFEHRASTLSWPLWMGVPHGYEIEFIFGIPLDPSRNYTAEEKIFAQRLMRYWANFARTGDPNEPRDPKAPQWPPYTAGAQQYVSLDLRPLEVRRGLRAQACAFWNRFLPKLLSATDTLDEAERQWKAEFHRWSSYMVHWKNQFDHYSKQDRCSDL
Sequence of recombinant human AChE (P22303 32-614): as above

As to `CC(=O)Nc1cccc([N+](C)(C)C)c1` [ATMA, 3-(acetamido)-N,N,N-trimethylanilinium], the “i2 for propidium with A-site ligand” value in the experiment on AChE (ternary complex with propidium) is reported as 9.5. Further, the “i2 for thioflavin T with A-site ligand” value in the experiment with AChE is 3.1.

Consider `C[N+](C)(C)CCOC(N)=O` [carbachol, carbamoylcholine chloride], for which the i in experiment [1] is reported as 0.92; in experiment [1] (setting [3]) it was 1.59. Besides, the fEL/fESL in experiment [1] (setting [2]) is listed as 1.50; in experiment [1] (setting [3]), 1.50; in experiment [1] (one-site fit, (iKS)^−1 fixed at 0) it was 1.85. Further, the figures for the i2 in experiment [1] (setting [2]) and in experiment [1] (setting [3]) were 1.08 and 0.42, respectively. Further, the Kd was 26 ± 4 mM in experiment [1] (read-out: iKs, P-site in E, i2 fixed at 0.90); 1.7 ± 0.4 mM on carbamoylated AChE (EC) (KECM+S, combined binding to A- and P-sites in EC, iEC2 fixed at 0.90); 1.66 mM at carbamoylated AChE (EC) (KECM+S, maximum parameter range fit, iEC fixed at 1e-6); 1.66 mM at carbamoylated AChE (EC) (KECM+S, maximum parameter range fit, iECKECS fixed at 8 mM); 1.8 ± 0.5 mM at carbamoylated AChE (EC) (KECM, A-site in EC, iEC2 fixed at 0.90); 1.66 mM on carbamoylated AChE (EC) (KECM, maximum parameter range fit, iEC fixed at 1e-6). Further, the Kd on carbamoylated AChE (EC) (iECKECS, P-site in EC, iEC2 fixed at 0.90) was found to be 32 ± 2 mM; on carbamoylated AChE (EC) (iECKECS, maximum parameter range fit, iEC fixed at 1e-6), 34 mM. Besides, the iEC on carbamoylated AChE (EC) was determined as 1.23; on carbamoylated AChE (EC) (setting [5]) it was 3.5. The compound further displayed a fECSL/fESL at carbamoylated AChE (EC) (for the three sets in Tables 1 and 2) of 1.14 ± 0.03. In addition, the “increase of fluorescence of bound thioflavin T when carbachol bound to the A-site in ternary complex with EC” value at carbamoylated AChE (EC) (from fECL/fECSL) is “about 20%”. Also, the fECL/fECSL at carbamoylated AChE (EC) (iEC2 fixed at 0.90) is 0.83 and 0.83 ± 0.01; on carbamoylated AChE (EC) (setting [4]), 0.83; at carbamoylated AChE (EC) (setting [5]), 0.83. For the same compound, the iEC2 at carbamoylated AChE (EC) (setting [4]) is listed as 0.96; on carbamoylated AChE (EC) (setting [5]) it was 0.21. For the same compound, the “k12 + k21” value at recombinant human AChE (1.67 mM carbachol, one-component fit (eq 6)) is 5.94 ± 0.02 min⁻¹; on recombinant human AChE (1.67 mM carbachol, two-component fit (eq A2)) it was 6.53 ± 0.02 min⁻¹; on recombinant human AChE (60 mM carbachol, one-component fit (eq 6)) it was 23.8 ± 0.3 min⁻¹; at recombinant human AChE (60 mM carbachol, two-component fit (eq A2)) it was 27.0 ± 0.4 min⁻¹. For the same compound, the results for the k122 at recombinant human AChE (1.67 mM carbachol) and at recombinant human AChE (60 mM carbachol) were 0.68 ± 0.04 and 4.3 ± 0.3, respectively.

Regarding `CC[N+](C)(C)c1cccc(O)c1` [edrophonium], the “i2 for thioflavin T with A-site ligand” value with AChE is 1.12.
